Patent publication US8158764B2 (priority 2006, dated 2012)
Where “and” joins values, the source holds several entries; their conditions need not be identical. Equal values may be shown once.

Columns and labels:
κ receptors = biological target: T1, κ receptors (Cavia porcellus, UniProt P41144); assay: Affinity to κ receptors, [3H]U-69593 binding on cerebellum homogenates; design: species or system guinea-pigs; details: for Ki: guinea-pig cerebellum, 0.7 nM [3H]U-69593, read-out: Ki (nM) κ Receptor
T1 construct: homogenates of guinea-pigs cerebellum (250 μg of protein); from tissue; host or cells: guinea-pig cerebellum
T1 sequence (P41144 whole entry): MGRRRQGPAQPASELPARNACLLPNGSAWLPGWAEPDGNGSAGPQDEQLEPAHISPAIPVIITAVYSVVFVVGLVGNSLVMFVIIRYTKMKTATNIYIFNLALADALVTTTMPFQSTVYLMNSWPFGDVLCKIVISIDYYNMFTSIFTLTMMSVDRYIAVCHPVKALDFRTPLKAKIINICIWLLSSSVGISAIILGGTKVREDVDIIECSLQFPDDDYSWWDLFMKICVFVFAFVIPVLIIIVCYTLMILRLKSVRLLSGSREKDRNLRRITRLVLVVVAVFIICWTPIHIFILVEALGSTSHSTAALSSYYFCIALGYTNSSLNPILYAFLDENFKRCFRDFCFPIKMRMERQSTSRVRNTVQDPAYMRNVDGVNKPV
Method: (§1) The non specific binding was determined in the presence of 10 μM of naltrexone. After incubation, samples were rapidly filtered through glass fibers (GF/B, Packard), previously incubated with 0.3% of polyethyleneimine and rinsed several times with 50 mM of cold Tris-HCl using a “96-sample cell harvester” (Unifilter, Packard). Filters were afterwards dried and the radioactivity was counted.

human μ receptors = biological target: T2, human μ receptors (Homo sapiens, UniProt P35372); assay: biochemical; assay type: binding
T2 construct: expressed in transfected cells; host or cells: HEK-293
T2 sequence (P35372 whole entry): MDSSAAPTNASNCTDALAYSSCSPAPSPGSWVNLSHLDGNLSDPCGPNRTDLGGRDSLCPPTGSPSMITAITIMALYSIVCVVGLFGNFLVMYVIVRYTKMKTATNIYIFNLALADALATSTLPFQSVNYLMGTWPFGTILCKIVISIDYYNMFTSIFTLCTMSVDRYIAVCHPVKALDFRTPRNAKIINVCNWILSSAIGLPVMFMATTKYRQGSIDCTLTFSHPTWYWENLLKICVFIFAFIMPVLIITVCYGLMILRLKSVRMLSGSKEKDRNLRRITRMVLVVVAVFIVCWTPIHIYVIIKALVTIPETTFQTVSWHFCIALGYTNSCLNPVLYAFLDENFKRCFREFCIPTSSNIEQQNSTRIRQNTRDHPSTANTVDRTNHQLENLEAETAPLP

[1] = Activity and toxicity of the 3-methoxy derivative (test not specified); details: in words
[2] = Hot plate test (analgesic activity); assay type: in vivo; details: mouse, intravenous
[3] = Tail flick test (analgesic activity); assay type: in vivo, mouse; design: AUC, tail flick test: unit not given here; details: for duration of the analgesic activity compared with morphine: in words, tail flick and hot plate tests; for ED50 / Max Effect (time), tail flick test: mouse, intravenous
Method: The “Tail flick” test (test of D'Amour & Smith, 1941, Pharmacol Exp Ther; 72: 74-79) consists in placing the tail of a mouse, after administration of a product, in front of an infrared source in order to produce a nociceptive stimulus (a surface temperature of 55° C.). The reaction time (RT) of the mouse (latency between the start of the light beam and the moment the mouse withdraws its tail) was measured in duplicate at 8 times spread from […] after administration of the product. A maximal 10 second-period has been chosen as the maximal reaction time in order to avoid any tissue damage for the animal.
Products were intravenously-administered at doses comprised between 0.5 and 8 mg/kg (8 mice per group).
Two measures of reaction time were realized before administration of the product for each mouse so as to establish a base line.
The MPE % represents the percentage of possible maximal effect and corresponds to the following formula: […]

κ receptor [4] = biological target: T3, κ receptor (Oryctolagus cuniculus, UniProt G1SJ19); assay: Antagonist activity on κ receptor, electrically stimulated rabbit vas deferens; assay type: biochemical
T3 construct: using prostatic segments of rabbits' deferens vas; from tissue; host or cells: rabbit vas deferens (prostatic segments)
T3 sequence (G1SJ19 1-383): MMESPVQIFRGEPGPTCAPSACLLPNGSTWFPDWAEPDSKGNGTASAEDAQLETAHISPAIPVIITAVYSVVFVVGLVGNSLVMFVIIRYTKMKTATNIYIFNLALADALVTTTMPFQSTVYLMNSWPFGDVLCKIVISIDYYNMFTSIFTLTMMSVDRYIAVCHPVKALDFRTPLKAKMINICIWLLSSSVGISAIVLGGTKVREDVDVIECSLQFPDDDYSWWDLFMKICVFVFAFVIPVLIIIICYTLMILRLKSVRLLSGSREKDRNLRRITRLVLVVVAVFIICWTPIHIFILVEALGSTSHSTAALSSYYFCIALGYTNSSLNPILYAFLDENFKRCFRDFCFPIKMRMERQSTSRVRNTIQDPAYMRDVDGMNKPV
Method: The agonist/antagonist activity on K receptors of compounds according to the invention was estimated by using prostatic segments of rabbits' deferens vas, stretched and stimulated by an electric current of 0.1 Hz during 1 msec.
In order to test an antagonist activity, a response control (peak of contraction of the tissue) was obtained by exposing tissues to a high concentration (0.1 μM) in specific agonist U-69593.
Tissues were then exposed to growing concentrations of the compound according to the invention or to the specific agonist. The various concentrations were cumulated and each concentration was maintained in contact with the tissue until a stable response was obtained or up to […].
An antagonist response was observed when the amplitude of peaks of contractions provoked by electric stimulation was similar to the one observed with the nor-BNI.
The measured parameter was a maximal change of amplitude of the peaks of contractions provoked by electric stimulation with various concentrations of the compound.

κ receptor [5] = biological target: T3, κ receptor; assay type: biochemical, rabbit
[6] = Intestinal transit in mice
δ receptors = biological target: T4, δ receptors (Homo sapiens, UniProt P41143); assay: Affinity to δ receptors, [3H]DADLE binding on cell membrane homogenates (CHO cells)
T4 construct: expressed in transfected cells; host or cells: CHO
T4 sequence (P41143 whole entry): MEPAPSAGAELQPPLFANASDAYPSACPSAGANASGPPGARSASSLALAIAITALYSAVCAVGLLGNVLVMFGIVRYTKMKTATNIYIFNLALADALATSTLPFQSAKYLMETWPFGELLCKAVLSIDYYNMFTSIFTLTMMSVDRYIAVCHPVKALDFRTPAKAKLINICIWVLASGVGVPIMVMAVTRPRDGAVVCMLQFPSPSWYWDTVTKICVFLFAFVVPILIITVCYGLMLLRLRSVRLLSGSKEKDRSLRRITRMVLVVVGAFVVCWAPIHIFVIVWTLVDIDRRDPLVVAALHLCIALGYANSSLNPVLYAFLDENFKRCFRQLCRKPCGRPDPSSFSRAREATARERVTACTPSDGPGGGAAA
Method: as §1

| Compound | Ki (κ receptors) [nM] | Ki (human μ receptors) [nM] | ED50 [2] [mg/kg] | Effet max (time), hot plate test [2] [min] | AUC, tail flick test ([3]; dose 1 mg/kg iv) | AUC, tail flick test ([3]; dose 2 mg/kg iv) | AUC, tail flick test ([3]; dose 4 mg/kg iv) | AUC, tail flick test ([3]; dose 8 mg/kg iv) | duration of the analgesic activity compared with morphine [3] | ED50 [3] [mg/kg] | Max Effect (time), tail flick test [3] [min] | other results |
| --- | --- | --- | --- | --- | --- | --- | --- | --- | --- | --- | --- | --- |
| COc1ccc2c3c1OC1C(OC4OC(C(=O)NCCS)C(O)C(O)C4O)C=CC4C(C2)N(C)CCC341 (centres unmarked) [Compound C6G-cya] | 100 | 11 | – | – | – | – | – | – | – | – | – | activity of the 3-methoxy substituted compound [1]: inactive; toxicity of the 3-methoxy substituted compound [1]: toxic |
| CCOc1ccc2c3c1OC1C(OC4OC(C(=O)NCCS)C(O)C(O)C4O)C=CC4C(C2)N(C)CCC341 (centres unmarked) [Compound M3Et-6G-cya] | 220 | 13 | 2.75 | 120 | 1047.85 | 2538.93 | 5012.90 | 6059.22 | much longer | 2.04 | 120 | – |
| CCOc1ccc2c3c1O[C@H]1[C@@H](O[C@@H]4O[C@H](C(=O)NCCSSCCC(=O)Nc5cccc6c7c([nH]c56)[C@@H]5Oc6c(O)ccc8c6[C@@]56CCN(CC5CC5)[C@H](C8)[C@]6(O)C7)[C@@H](O)[C@H](O)[C@H]4O)C=CC4[C@@H](C2)N(C)CC[C@@]341 (some centres unmarked) [M3Et-6G-cya-3MP-NTI] | – | – | – | – | – | 2576 | 4410 | 5733 | – | 2.9 | 120 | – |
| CCOc1ccc2c3c1OC1C(OC4OC(C(=O)NCCSSCCNC(=O)C5OC(OC6C=CC7C8Cc9ccc(OCC)c%10c9C7(CCN8C)C6O%10)C(O)C(O)C5O)C(O)C(O)C4O)C=CC4C(C2)N(C)CCC341 (centres unmarked) [M3Et-6G-cya-cya-M3Et-6G] | 25 | 14 | 1.35 | 120 | 1233.75 | 4824.51 | 5915.16 | 5817.46 | much longer | 1.32 | 120 | antagonist activity: response in % of the response control at U-69593 (0.1 μM) (κ receptor [4]; compound 0.03 μM): 100%; antagonist activity: response in % of the response control at U-69593 (0.1 μM) (κ receptor [4]; compound 0.3 μM): 100%; antagonist activity: response in % of the response control at U-69593 (0.1 μM) (κ receptor [4]; compound 3 μM): 92%; antagonist activity: response in % of the response control at U-69593 (0.1 μM) (κ receptor [4]; compound 30 μM): 71%; agonist/antagonist behaviour on κ receptor (κ receptor [4]; in words): behaves as a κ receptor antagonist; agonist activity: response in % of the response control at U-69593 (κ receptor [5]): 0% and −4% and −3%; improvement of affinity for κ receptors (factor) (κ receptors; compared with morphine): 6; transit inhibition ([6]; at the maximal analgesic effect after iv injection at ED50): about 90%; analgesia when transit speed becomes normal ([6]; between 10 and 12 hours after injection): 50%; effect on transit while analgesic activity is maintained at maximum ([6]; in words): transit only slows down; Ki (δ receptors): > 1000 nM; AUC, tail flick test ([3]; dose 0.5 mg/kg iv): 617.79; duration of maximum analgesic activity ([3]; injected at two-fold ED50, no supplementary dose): at least 6 hours |
| Oc1ccc2c3c1O[C@H]1c4[nH]c5c(c4C[C@@]4(O)[C@@H](C2)N(CC2CC2)CC[C@]314)C[C@@]1(O)[C@H]2Cc3ccc(O)c4c3[C@@]1(CCN2CC1CC1)[C@H]5O4 [nor-BNI, nor-binaltorphimine, reference compound] | – | – | – | – | – | – | – | – | – | – | – | antagonist activity: response in % of the response control at U-69593 (0.1 μM) (κ receptor [4]; compound 0.1 nM): 80%; antagonist activity: response in % of the response control at U-69593 (0.1 μM) (κ receptor [4]; compound 0.3 nM): 55%; antagonist activity: response in % of the response control at U-69593 (0.1 μM) (κ receptor [4]; compound 1 nM): −1% |
